Assay results: patent US10899710B2, “Pyridines and their use in the treatment of cancer” (The United States of America, as represented by the …, priority 2015, dated 2021)
Counter-ions that a name gives are not always drawn. Like-named read-outs stand apart in the source and are kept apart here.

Tests used:
SW-620 = assay: Growth inhibition GI50, SW-620; format: cell-based; conditions: Homo sapiens, Colon Cancer
Experimental: (§1) Cell lines were plated 2000 cells/well in 96-well black optical plates in the presence of 10% FBS media containing 25 nM selenite. The following day cells were treated with various concentrations of the compound of Example 1 (0.1% DMSO final) and incubated for 72 hrs. After the incubation Cell-Quanti Blue reagent was added to each well and incubated for additional 3 hrs. Fluorescence was read ex:530 nm/em:590 nm, and percent of viability was determined using DMSO vehicle and no cell (blank) controls.
(§2) Further results obtained in similar experiments were as indicated below (GI50 refers to concentration of compound yielding 50% growth inhibition; E denotes an exponent to the base 10).

MOLT-4 = assay: Growth inhibition GI50, MOLT-4; format: cell-based; conditions: Homo sapiens, Leukemia
Experimental: as §1, §2

HT29 = assay: Growth inhibition GI50, HT29; format: cell-based; conditions: Homo sapiens, HT-29, Colon Cancer
Experimental: as §1, §2

MDA-MB-468 = assay: Growth inhibition GI50, MDA-MB-468; format: cell-based; conditions: Homo sapiens, Breast Cancer
Experimental: as §1, §2

ACHN = assay: Growth inhibition GI50, ACHN; format: cell-based; conditions: Homo sapiens, Renal Cancer
Experimental: as §1, §2

[1] = mouse, in vivo, iv, 10 mg/kg
Experimental: Fox Chase male severe combined immunodeficiency (SCID, Charles River, #250) mice were inoculated with 1×10^6 FaDu cells in PBS at a pre-shaved region located at the anterior lateral thoracic wall. After 13 days of growth, tumors were caliper measured and treatments were initiated. […] Mouse health status was monitored daily, weight was measured, and tumor volume was recorded from caliper measurements.

OVCAR-8 = assay: Growth inhibition GI50, OVCAR-8; format: cell-based; conditions: Homo sapiens, Ovarian Cancer
Experimental: as §1, §2

RXF 393 = assay: Growth inhibition GI50, RXF 393; format: cell-based; conditions: Homo sapiens, Renal Cancer
Experimental: as §1, §2

NCI-H522 = assay: Growth inhibition GI50, NCI-H522; format: cell-based; conditions: Homo sapiens, Non-Small Cell Lung Cancer
Experimental: as §1, §2

CAKI-1 = assay: Growth inhibition GI50, CAKI-1; format: cell-based; conditions: Homo sapiens, Renal Cancer
Experimental: as §1, §2

LOX IMVI = assay: Growth inhibition GI50, LOX IMVI; format: cell-based; conditions: Homo sapiens, Melanoma
Experimental: as §1, §2

[2] = target: T1, gluthathione reductase (GR) (Homo sapiens, UniProt P00390); assay: Inhibition of recombinant GR (GSSG assay); format: biochemical
T1 sequence (P00390 44-522): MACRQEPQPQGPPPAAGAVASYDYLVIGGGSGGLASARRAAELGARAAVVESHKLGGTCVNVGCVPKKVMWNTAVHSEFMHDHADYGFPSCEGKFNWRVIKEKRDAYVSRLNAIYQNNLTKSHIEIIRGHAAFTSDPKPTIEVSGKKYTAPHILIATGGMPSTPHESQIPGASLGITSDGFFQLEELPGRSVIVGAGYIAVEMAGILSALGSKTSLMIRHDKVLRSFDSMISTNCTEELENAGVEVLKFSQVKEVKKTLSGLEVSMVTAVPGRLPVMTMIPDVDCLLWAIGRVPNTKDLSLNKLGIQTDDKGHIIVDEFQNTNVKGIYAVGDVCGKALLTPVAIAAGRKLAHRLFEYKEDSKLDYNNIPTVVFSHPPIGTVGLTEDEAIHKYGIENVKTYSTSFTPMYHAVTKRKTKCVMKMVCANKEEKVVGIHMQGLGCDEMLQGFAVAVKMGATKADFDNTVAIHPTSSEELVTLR
Experimental: (§3) Small molecule inhibition of recombinant thioredoxin reductase 1 (TrxR1) and gluthathione reductase (GR) was examined in 96-well plate format. 15 nM TrxR1 was incubated in the presence of 250 μM NADPH, 0.1 mg/ml BSA, and various concentrations of the compound of Example 1 (1% DMSO final) in 50 mM Tris (pH 7.5) and 2 mM EDTA buffer for 15 minutes. Following the incubation period, 2.5 mM DTNB was added to each well and the change in O.D. at 412 nm was followed. Percent activity was determined using DMSO vehicle and no TrxR1 (blank) controls. 2 nM GR was incubated in the presence of 250 μM NADPH, 0.1 mg/ml BSA, and various concentrations of compounds (1% DMSO final) in 50 mM Tris (pH 7.5) and 2 mM EDTA buffer for 15 minutes. Following the incubation period, 1 mM GSSG was added to each well and the change in O.D. at 340 nm was followed. Percent activity was determined using DMSO vehicle and no GR (blank) controls.

HS 578T = assay: Growth inhibition GI50, HS 578T; format: cell-based; conditions: Homo sapiens, Breast Cancer
Experimental: as §1, §2

HCT-116 = assay: Growth inhibition GI50, HCT-116; format: cell-based; conditions: Homo sapiens, Colon Cancer
Experimental: as §1, §2

UACC-62 = assay: Growth inhibition GI50, UACC-62; format: cell-based; conditions: Homo sapiens, Melanoma
Experimental: as §1, §2

HOP-62 = assay: Growth inhibition GI50, HOP-62; format: cell-based; conditions: Homo sapiens, Non-Small Cell Lung Cancer
Experimental: as §1, §2

MCF7 = assay: Growth inhibition GI50, MCF7; format: cell-based; conditions: Homo sapiens, Breast Cancer
Experimental: as §1, §2

[3] = target: T2, recombinant thioredoxin reductase 1 (TrxR1) (Homo sapiens, UniProt Q16881); assay: Inhibition of recombinant TrxR1 (DTNB assay); format: biochemical; conditions: read-out: TrxR inhibition (IC50)
T2 sequence (Q16881 151-649 limits assumed): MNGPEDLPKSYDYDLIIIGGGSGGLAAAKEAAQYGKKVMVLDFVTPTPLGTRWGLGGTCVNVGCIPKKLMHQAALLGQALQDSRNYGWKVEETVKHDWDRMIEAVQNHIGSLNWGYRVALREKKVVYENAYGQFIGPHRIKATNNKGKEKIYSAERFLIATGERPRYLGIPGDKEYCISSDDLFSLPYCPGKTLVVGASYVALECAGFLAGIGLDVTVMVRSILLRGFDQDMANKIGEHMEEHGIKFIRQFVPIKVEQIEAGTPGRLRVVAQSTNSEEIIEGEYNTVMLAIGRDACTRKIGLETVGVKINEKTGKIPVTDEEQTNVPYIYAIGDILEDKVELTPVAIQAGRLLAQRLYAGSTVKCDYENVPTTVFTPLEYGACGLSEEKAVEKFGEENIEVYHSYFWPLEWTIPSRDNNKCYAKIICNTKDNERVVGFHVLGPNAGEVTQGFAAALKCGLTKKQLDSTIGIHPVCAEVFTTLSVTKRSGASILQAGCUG
Experimental: as §3

SNB-19 = assay: Growth inhibition GI50, SNB-19; format: cell-based; conditions: Homo sapiens, CNS Cancer
Experimental: as §1, §2

SK-OV-3 = assay: Growth inhibition GI50, SK-OV-3; format: cell-based; conditions: Homo sapiens, Ovarian Cancer
Experimental: as §1, §2

TK-10 = assay: Growth inhibition GI50, TK-10; format: cell-based; conditions: Homo sapiens, Renal Cancer
Experimental: as §1, §2

HCC-2998 = assay: Growth inhibition GI50, HCC-2998; format: cell-based; conditions: Homo sapiens, Colon Cancer
Experimental: as §1, §2

T-47D = assay: Growth inhibition GI50, T-47D; format: cell-based; conditions: Homo sapiens, T47D, Breast Cancer
Experimental: as §1, §2

Molecule `COc1ccc([N+](=O)[O-])c(S(=O)(=O)c2ccc(Cl)cc2)n1` [Example 1, 2-((4-Chlorophenyl)sulphonyl)-6-methoxy-3-nitropyridine Hydrochloride] has a GI50 (SW-620) of 2.06 µM, a GI50 (MOLT-4) of 3.59 µM and a GI50 (HT29) of 3.34 µM. The GI50 (MDA-MB-468) was 1.93 µM, the GI50 (ACHN) was 2.08 µM and the “Signs of general or systemic toxic effects” value [1] was “no overt signs of general or systemic toxic effects”. It also gave a GI50 (OVCAR-8) of 3.67 µM, a GI50 (RXF 393) of 4.45 µM and a GI50 (NCI-H522) of 1.86 µM. It also gave a GI50 (CAKI-1) of 1.61 µM, a GI50 (LOX IMVI) of 1.98 µM and an IC50 ([2]; Biological Example 1, 2 nM GR, 15 minutes incubation) of over 100 µM. The IC50 ([2]; Biological Example 4) was over 100 µM, the GI50 (HS 578T) was 13 µM and the GI50 (HCT-116) was 2.9 µM. It also gave a GI50 (UACC-62) of 3.56 µM, a GI50 (HOP-62) of 16.6 µM and a GI50 (MCF7) of 2.24 µM. It also gave an IC50 ([3]; Biological Example 1, 15 nM TrxR1, 15 minutes incubation) of 0.012 µM, an IC50 ([3]; Biological Example 4) of 0.021 µM and a GI50 (SNB-19) of 13 µM. It also gave a GI50 (SK-OV-3) of 15.1 µM, a GI50 (TK-10) of 3.57 µM and a GI50 (HCC-2998) of 8.38 µM. For the same molecule, the GI50 (T-47D) was 2.12 µM.
